Columns and labels:
EPHA6 = biological target: T1, EPHA6 (Homo sapiens, UniProt Q9UF33); experiment: EPHA6 enzyme activity assay (HTRF); format: biochemical; settings: ATP 25 μM; read-out: IC50 against EPHA6
T1 sequence (Q9UF33 23-1036): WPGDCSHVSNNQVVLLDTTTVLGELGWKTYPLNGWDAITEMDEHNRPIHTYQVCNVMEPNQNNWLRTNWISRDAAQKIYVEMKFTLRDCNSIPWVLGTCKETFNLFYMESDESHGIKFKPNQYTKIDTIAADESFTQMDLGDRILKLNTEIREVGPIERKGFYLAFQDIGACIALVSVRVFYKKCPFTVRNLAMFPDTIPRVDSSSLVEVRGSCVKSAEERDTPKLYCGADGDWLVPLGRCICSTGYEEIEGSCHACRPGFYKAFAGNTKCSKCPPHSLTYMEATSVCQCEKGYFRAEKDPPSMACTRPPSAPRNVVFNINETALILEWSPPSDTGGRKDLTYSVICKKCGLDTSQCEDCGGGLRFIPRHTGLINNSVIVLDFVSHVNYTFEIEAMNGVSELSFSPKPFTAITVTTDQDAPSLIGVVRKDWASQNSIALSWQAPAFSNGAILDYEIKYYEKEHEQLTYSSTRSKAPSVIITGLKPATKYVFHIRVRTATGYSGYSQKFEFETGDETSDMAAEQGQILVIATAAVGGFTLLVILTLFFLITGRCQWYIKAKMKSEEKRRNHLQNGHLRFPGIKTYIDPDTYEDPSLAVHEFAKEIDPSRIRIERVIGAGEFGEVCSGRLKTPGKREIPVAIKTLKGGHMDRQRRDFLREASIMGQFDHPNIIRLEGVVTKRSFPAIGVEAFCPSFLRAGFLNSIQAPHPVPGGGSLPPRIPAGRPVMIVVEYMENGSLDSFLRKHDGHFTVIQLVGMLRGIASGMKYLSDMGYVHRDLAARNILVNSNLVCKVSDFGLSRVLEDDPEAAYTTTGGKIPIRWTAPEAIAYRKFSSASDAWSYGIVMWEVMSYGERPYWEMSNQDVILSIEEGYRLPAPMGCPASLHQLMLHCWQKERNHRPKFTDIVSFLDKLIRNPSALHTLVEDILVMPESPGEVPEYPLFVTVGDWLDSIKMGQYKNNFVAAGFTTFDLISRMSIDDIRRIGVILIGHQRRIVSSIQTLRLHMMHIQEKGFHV
Method: Replicate wells were set for the assay. 2× kinase solution was prepared with 1× kinase reaction buffer (5× buffer, 5 mM MgCl2, 1 mM DTT, H2O, and 1 mM MnCl2). 2.5 μL of EPHA6 (0.5 nM, 08-125, Carna) solution was transferred to a 384 reaction plate.

[1] = test system: UUO-induced renal fibrosis; experiment: UUO-induced renal fibrosis in mice, H&E staining of kidney tissues; format: in vivo, C57 mice; settings: 10 days
Source text: (§1) Modeling a UUO model mouse: C57 mice (male, 8 weeks old, weighing 20-25 g) were purchased from Zhejiang Vital River Laboratory Animal Technology Co., Ltd. After anesthesia, a 1-2 cm incision was made in the left kidney region of the abdomen, and the intestinal tract was carefully removed to expose the ureter. The ureter was ligated with double lines and cut off at the middle position of the double-line ligation. The intestinal tract was recovered, and the incision was stitched.
(§2) All animals were administered orally on the day of surgery. Animals in the sham group and vehicle group were administered a test drug vehicle (5% DMSO+5% Tween80+20% PEG400+70% H2O). All administration solutions were freshly prepared before use. The experiment ended 10 days after the administration.
(§3) The preparation method for the positive drug included weighing pirfenidone into a mortar, adding a small amount of 0.5% CMC-Na, grinding the mixture fully and uniformly, supplementing the mixture with the remaining 0.5% CMC-Na, and mixing well for use.
(§4) At the end of the experiment, the left kidney was taken and placed in 4% PFA for fixation. The kidney was conventionally sectioned and stained 24 h after the fixation.

[2] = test system: UUO-induced renal fibrosis; experiment: UUO-induced renal fibrosis in mice, Masson staining of collagen fibers in kidney tissues; format: in vivo, C57 mice
Source text: as §1, §2, §3, §4

α-SMA = experiment: UUO-induced renal fibrosis in mice, α-SMA immunohistochemical staining of kidney tissues; format: in vivo, C57 mice
Source text: as §1, §2, §3, §4

F4/80 (macrophages) = experiment: UUO-induced renal fibrosis in mice, F4/80 immunohistochemical staining of kidney tissues; format: in vivo, C57 mice; settings: 10 days
Source text: as §1, §2, §3, §4

[3] = Relative body weight change in UUO model mice; format: in vivo, C57 mice; settings: Group 7, 250 mg/kg BID P.O
Source text: as §1, §2, §3
Relative body weight change=body weight on day n/body weight on day 0×100%

## Cc1c(C#Cc2cnc3ccc(N4CCC(O)CC4)nn23)cccc1C(=O)Nc1cc(Cl)cc(C(F)(F)F)c1 [compound 1, N-(3-chloro-5-(trifluoromethyl)phenyl)-3-((6-(4-hydroxypiperidin-1-yl)imidazo[1,2-b]pyridazin-3-yl)ethynyl)-2-methylbenzamide]
EPHA6
  IC50: 12.8 nM
[1]; compound 1 dose groups (3, 10, 30, 100 mg/kg QD P.O)
  H&E staining of kidney tissue, compared with the vehicle group: reduced tubular atrophy, a looser glomerular structure, and no significant thickening of tubular basement membrane
[2]; 3 mpk QD P.O, 10 days (FIG. 3B)
  Masson staining positive area, quantitative analysis: significantly reduce the Masson staining positive area
[2]; 3 mpk, 10 mpk, 30 mpk and 100 mpk groups, QD P.O, 10 days (FIG. 3A)
  Masson staining, collagen deposition in the renal tubular spaces: significant effect in relieving the collagen deposition
[2]; UUO mice, QD P.O, 10 days
  onset dose for treating renal fibrosis: 3 mg/kg
α-SMA; 3 mpk QD P.O, 10 days, P<0.05 (FIG. 4B)
  α-SMA positive area compared with the vehicle group: significantly reduced
α-SMA; 10 mpk, 30 mpk and 100 mpk QD P.O, 10 days (FIG. 4B)
  levels of α-SMA compared with the vehicle group: significantly reduced
F4/80 (macrophages); 30 mpk and 100 mpk QD P.O
  expression levels of macrophages (F4/80) compared with the vehicle group: significantly reduced
F4/80 (macrophages); each dose group (3, 10, 30, 100 mpk QD P.O)
  expression levels of macrophages (F4/80) compared with the vehicle group: reduced expression levels of macrophages

## Cc1ccc(=O)n(-c2ccccc2)c1 [pirfenidone]
[3]; day 0
  Relative body weight change: 100 ± 0.00%
[3]; day 1
  Relative body weight change: 90.41 ± 0.25%
[3]; day 2
  Relative body weight change: 89.78 ± 0.81%
[3]; day 3
  Relative body weight change: 88.90 ± 0.75%
[3]; day 4
  Relative body weight change: 90.19 ± 0.85%
[3]; day 5
  Relative body weight change: 91.53 ± 0.62%
[3]; day 6
  Relative body weight change: 91.83 ± 0.85%
[3]; day 7
  Relative body weight change: 89.72 ± 0.68%
[3]; day 8
  Relative body weight change: 90.68 ± 0.85%
[3]; day 9
  Relative body weight change: 93.04 ± 0.66%
[3]; day 10
  Relative body weight change: 96.16 ± 1.10%
[1]; 250 mg/kg BID P.O
  H&E staining of kidney tissue, compared with the vehicle group: a looser glomerular structure and no significant material deposition in the renal tubular spaces
